Data as given in patent US20110237495A1, “FUNCTIONAL METABOLOMICS COUPLED MICROFLUIDIC CHEMOTAXIS DEVICE AND IDENTIFICATION OF NOVEL CELL MEDIATORS” (The Brigham and Women's Hospital, Inc. Corporate Sponsored …, priority 2008, published 2011).
“Also recorded” adds a separate entry of the source.

Experiments:
[1] = Zymosan A-induced murine peritonitis: appearance of i.v. labeled omega-3 fatty acids in peritoneal exudates; format: in vivo, male FVB mice; details: for time of maximum level in peritoneal exudate: 1 μg/mouse i.v. just before i.p. zymosan A, GC-MS; for exudate level at 48 h compared with 24 h: 1 μg/mouse i.v., p<0.05
Experimental: Male FVB mice were anesthetized with isoflurane (Hospira Inc, Lake Forest, Ill.). Both 1 μg d5-DHA (4Z,7Z,10Z,13Z,16Z,19Z-docosahexaenoic-21,21,22,22,22-d5 acid: Cayman Chemical, Ann Arbor, Mich.) and 1 μg d5-EPA (5Z,8Z,11Z,14Z,17Z-eicosapentaenoic-19,19′,20,20,20-d5 acid: Cayman Chemical, Ann Arbor, Mich.) in 100 μl of 2% ethanol (v/v) in saline or vehicle alone were administered by bolus tail vein injection. Approximately five minutes later, peritonitis was initiated with intraperitoneal administration of 1 mg of zymosan A (Sigma Aldrich, St. Louis, Mo.). At indicated time intervals, mice were euthanized with an overdose of isoflurane, and peritoneal exudates were collected by lavage with 5 ml of DPBS without either Ca^2+ or Mg^2+. Exudate cells and supernatants were separated by centrifugation (10 min, 1000 rpm, 4° C.), aliquots of supernatants were collected, and 4 volumes of cold acetone were added to precipitate proteins. Serum albumin and total protein levels were determined^32.
Briefly, FVB mice (6-8 wk) received d5-EPA and d5-DHA i.v. (1 μg/mouse of each) (FIG. 4D, top panel) just before i.p. challenge with zymosan A (1 mg/ml/mouse) (FIG. 4D, middle panel). Peritoneal exudates were collected at 0, 2, 4, 12, 24 and 48 h and taken to solid phase extraction. Eluate fractions were treated with diazomethane and taken to GC-MS. Results represent the mean±SEM from n=3, separate mice. Mass spectra of d5-EPA methyl ester and d5-DHA methyl ester. d5-EPA and d5-DHA were derivatized into methyl esters and submitted to GC-MS for analysis shown in FIGS. 4A-C.
For tracer experiments, mice were fasted overnight (˜18 h) before 500 nCi of [1-^14C]-DHA (docosahexaenoic acid 4,7,10,13,16,19-[1-^14C], American Radiolabeled Chemicals Inc, St. Louis, Mo.) was injected via the tail vein. At indicated time intervals, exudates were collected (vide supra) and the radioactivity was determined using a scintillation counter (Multi-purpose scintillation counter LS6500, Beckman Coulter, Fullerton, Calif.).
Upon collection of peritoneal exudates, 2 volumes of cold methanol and internal standard (500 ng/sample, trans-parinaric acid, Molecular Probe, Eugene, Oreg.) were added to exudates, which were stored at −20° C. for 1 hr. After centrifugation, samples were diluted and applied to C18 cartridge columns (Extract-Clean EV SPE, Alltech, Deerfield, Ill.). Lipids were extracted using hexane and methyl formate and each fraction was collected and its unesterified fatty acids converted to corresponding methyl ester using diazomethane treatment^34. The esters were suspended in hexane, and then injected in GC-MS. Electron-impact GC-MS was carried out using an HP 6890 GC system with HP5973 Mass Selective Detector (Hewlett-Packard) equipped with an HP-5MS capillary column (0.25 mm ID×30 m, 0.25 μm, Agilent Technologies Inc., Wilmington, Del.) operating at a mass range from m/z 70 to 800. The ionization voltage was 70 eV and the ion source temperature was 230° C. Chromatography was carried out using a column temperature maintained at 150° C. for 2 min and then programmed to increase 10° C./min up to 230° C., 5° C./min up to 280° C., and then maintained at 280° C. for 10 min. EPA and DHA were separated and the area beneath each chromatographic peak of their deuterium labels was obtained by integration using a Chemstation integrator Version D.02.00.275 (Agilent Technologies Inc). […] The inventors selected the ω-3 ion ((CH)3CH2(CH)2CD2CD3=113) for both d5-EPA (FIG. 4A) and d5-DHA (FIG. 4B) methyl ester and M^+(290) for methyl parinate (FIG. 4C). Identification was conducted by examining and retention times as in FIGS. 4A-C (d5-EPA-methyl ester: 11.7 min FIG. 4A, inset, methyl-parinarate; 13.1 min (FIG. 4C, and d5-DHA; 13.9 min, FIG. 4B, inset). Calibration curves were obtained for each: d5-EPA; y=0.0016x+0.0313 (r^2=0.9954, 50-500 ng/ml), d5-DHA; y=0.0015x-0.0524 (r^2=0.9809, 50-500 ng/ml). […]

[2] = tested on: leukocyte infiltration in lung tissues; test: Hind-limb ischemia-reperfusion-induced second-organ (lung) injury, lung MPO by ELISA; format: in vivo, mice; details: for percent reduction of MPO found in lungs (FIG. 11), mean±SEM: 1 μg i.v. in vehicle, ischemia-reperfusion
Experimental: To identify the effects of the resolvins and protectins on inflammation resolution, ischemia-reperfusion induced second-organ injury experiments were designed and are illustrated in FIGS. 7A-D. Mice were anesthetized by intraperitoneal injection of pentobarbital (80 mg kg^−1, Nembutal sodium solution NDC 0074-3778-04). Hind-limb ischemia was initiated using tourniquets consisting of a rubber band placed on each hind limb as in ref.^35. Mice were subjected to hind limb ischemia for 1 h, after which the tourniquets were removed to initiate reflow-reperfusion. Resolvins, related compounds and analogs were each administered at 1 μg/mouse (i.e., DHA, RvD1, RvD1 methyl ester, 17-(R/S)-methyl-RvD1 methyl ester, RvE1, or 19-p-fluorophenoxy-RvE1 methyl ester) in vehicle (5 μl ethanol in 120 μl sterile saline) or vehicle alone. They were administered intravenously to the tail vein ˜5 min before the start of the reperfusion period. At the end of this reperfusion period (2 h), the mice were euthanized with an overdose of anesthetic and the lungs were quickly harvested, frozen in liquid nitrogen, and stored at −80° C. The right lungs were homogenized from individual mice and centrifuged, and the tissue levels of myeloperoxidase (MPO) (a leukocyte marker enzyme) in the resulting supernatants, for each experimental protocol, were determined using a mouse MPO enzyme-linked immunosorbent assay (Hycult biotechnology, Cell Sciences, Uden, The Netherlands).
Briefly, as illustrated in the time-course shown in FIG. 7A, hind-limb ischemia was induced in mice by creating tourniquets using a rubber band on each hind limb. After 1 h, the tourniquets were removed and reperfusion ensued. Test compounds (1 μg of DHA, RvD1, RvE1) in vehicle were administered intravenously 5 min before the start of the reperfusion period. At the end of the reperfusion period (2 h), lungs were collected and MPO concentrations were determined by ELISA. FIGS. 7B and C are representative images from histological analysis. FIG. 9B is a photomicrograph showing a hematoxylin/eosin-stained lung from ischemia/reperfusion second organ injury (control). […] Mean±SEM (n=3-5, control; n=12).
Ischemia/reperfusion is a well-appreciated pathophysiologic mechanism of organ injury and local tissue damage that can be initiated by excessively activated PMN. This system in the mouse, models the second organ injury observed in humans following tourniquet release of vessels in surgery involving, for example, extremities^41, 42. Remote or second organ injury can also occur when blood vessels are occluded, or during certain surgical procedures that create local ischemia and remote organ injury that has many features of rapid, acute inflammation and tissue damage^35. On release of the tourniquet occlusion, reflow is initiated and activated PMN rapidly infiltrate secondary organs, causing damage^35. Here, the inventors evaluated RvD1 in a remote organ injury system, i.e., hind-limb ischemia/reperfusion, to assess whether RvD1's ability to inhibit PMN migration, in vitro, in microchambers (FIGS. 8A-C, 9-11) can be predictive of their effect to reduce PMN mediated tissue and organ damage in vivo. […] The extent of lung tissue injury is associated with PMN activation and organ infiltration^35.

human PMN = test: Microfluidic chemotaxis device: PMN chemotaxis in IL-8 gradient; format: cell-based; details: 10 nM (DHA equimolar), PMN captured on P-selectin from a drop of whole blood, n=12
From the text: A new microvolume chemotaxis device was designed using polyethylene glycol (PEG) that allows testing the chemotactic function of neutrophils and their responses to these novel lipid mediators immediately after being separated from whole blood within the device. One exemplary embodiment of the device is illustrated in FIGS. 8A-C. In this embodiment, the microvolume chemotaxis device with microstructured valves was fabricated using “lab-on-chip” microfabrication technologies^36. Briefly, two silicon wafers were coated with a 50-μm-thick layer of SU8 photoresist (MicroChem, Newton, Mass.). After exposure to UV light through a mylar mask in a mask, aligner and development following manufacturer recommendations, 50 μm-tall features were produced on top of the silicon wafers. Subsequently, poly (dimethylsiloxane) (PDMS, Dow Corning, Midland, Mich.) was prepared by mixing two components in 10:1 ratio, as recommended by the manufacturer. […]
After assembly, different sections of the device were chemically modified for specific functionalities. […] The surface of the chemotaxis chamber, where neutrophils were captured and assessed for their chemotactic responses, were modified by physical adsorption of P-selectin (10 ng/mL for 30 minutes, R&D Systems, Minneapolis, Minn.) immediately before use. […]

time of maximum level in peritoneal exudate [1] [h]	exudate level at 48 h compared with 24 h [1]	Compound	percent reduction of MPO found in lungs (FIG. 11), mean±SEM [2] [%]	other results
4	significantly greater than at 24 h	[2H]C([2H])([2H])C([2H])([2H])/C=C\C/C=C\C/C=C\C/C=C\C/C=C\CCCC(=O)O [d5-EPA, 5Z,8Z,11Z,14Z,17Z-eicosapentaenoic-19,19′,20,20,20-d5 acid]		
		CC/C=C\C[C@H](O)/C=C/C=C\C=C\C=C\[C@@H](O)[C@@H](O)C/C=C\CCC(=O)OC [RvD1-Me, RvD1 carboxymethyl ester]	22.9 ±6.8	
		CC/C=C\CC(C)(O)/C=C/C=C\C=C\C=C\[C@@H](O)[C@@H](O)C/C=C\CCC(=O)OC (mixture of isomers) [17-(R/S)-methyl-RvD1-Me, 17-(R/S)-methyl-RvD1 carboxymethyl ester]	29.3 ±6.4	
		CC/C=C\C[C@H](O)/C=C/C=C\C=C\C=C\[C@@H](O)[C@@H](O)C/C=C\CCC(=O)O [RvD1, 7S,8R,17S-trihydroxy-4Z,9E,11E,13Z,15E,19Z-docosahexaenoic acid]		reduction of lung MPO concentration (FIG. 7D), mean±SEM ([2]; 1 μg i.v. 5 min before reperfusion, lungs collected after 2 h reperfusion): 47.5±2.4; reduction of leukocyte infiltration ([2]; 1 μg/mouse, ischemia/reperfusion injury): ~50%; effect on PMN migration (chemotaxis) in IL-8 gradient (human PMN): essentially completely stop PMN movements; also recorded: chemotaxis immediately ceased
2	significantly greater than at 24 h	[2H]C([2H])([2H])C([2H])([2H])/C=C\C/C=C\C/C=C\C/C=C\C/C=C\C/C=C\CCC(=O)O [d5-DHA, 4Z,7Z,10Z,13Z,16Z,19Z-docosahexaenoic-21,21,22,22,22-d5 acid]		
		CC/C=C\C/C=C\C/C=C\C/C=C\C/C=C\C/C=C\CCC(=O)O [^14C-DHA, docosahexaenoic acid 4,7,10,13,16,19-[1-^14C]]		time at which 14C label reached maximal levels in exudate ([1]; 500 nCi i.v., mice fasted overnight, scintillation counting): 1 h; effect on leukocyte trafficking (FACS analysis of exudates) ([1]; tracer levels i.v.): did not reduce leukocyte trafficking
